Experimental findings from patent US6551774B1, “Diagnostic methods for conditions associated with elevated cellular levels of telomerase activity” (Board of Regents, The University of Texas System, priority 1992, dated 2003) are described below.

For data set [1], the system named is Tetrahymena cells. The experiment in a line: Telomere length in vegetatively grown Tetrahymena by Southern blot. The note with it: up to 1 mM, 5 days of subculturing (15-20 cell generations), 2% PPYS. The class given is cell-based, Tetrahymena thermophila. On the procedure:
For analysis of macronuclear DNA from cultures containing the nucleoside analog AZT (Sigma), or controls lacking analog, at various timepoints during vegetative divisions, cells from stationary stock cultures were inoculated into 25 ml thymine-deficient Iso-sensitest broth (‘Isobroth’, Oxoid USA) in 250 ml flasks. Cultures were incubated at 30° C. with shaking (100 rpm) for 48 hours. Cells were counted and plated at 1000 cells/1.5 ml in 24-well plates (Falcon) and grown at 30° C., without shaking, for 48 hours. 5 μl of these log phase cells were used to inoculate 1 ml cultures (Isobroth) containing varied concentrations of nucleoside analog. Thereafter, every 2-4 days cells were transferred, either 5 μl per well, or 1-3 μl using a multi-pronged replicator into fresh 1 ml broth containing AZT. Remaining cells were pelleted and stored at −80° C. until processed for DNA analysis.
For analysis of macronuclear DNA from vegetative cultures containing the nucleoside analogs Ara-G (Calbiochem), ddG (Calbiochem), or ddI (Calbiochem), or controls lacking analog, stock cultures were grown overnight in 2% PPYS as described. Cells were counted and plated at 100 cells/2 ml in 2% PPYS containing varied amounts of analog, 1% DMSO (Fisher) (as a control for ddG and Ara-G), or 2% PPYS alone. Cells were replica plated into fresh medium every 2-6 days, and remaining cells were pelleted and stored at −80° C. until processed for DNA analysis.
For analysis of macronuclear DNA from vegetative cultures containing d4T (Sigma) or control lacking the analog, stock cultures (SB210 VI) were grown overnight in Isobroth as described. Cells were then counted and duplicate cultures inoculated at 500 cells/5 ml Isobroth in 50 ml conical tubes, and grown at 30° C., shaking 80 rpm. 500-2000 cells were transfered to fresh broth every 2-4 days, and the remainder pelleted and stored at −80° C. until processed for DNA analysis.
Restriction digests, agarose gel electrophoresis, transfer of DNA to Nytran filters (Schleicher and Schuell), and hybridization with ^32P-nick-trapplated or random-primed probes were carried out using standard procedures (Maniatis et.al. 1989). Telomere length was analyzed as described previously for Tetrahymena [Larson 50 Cell, 477, 1987].
Telomere lengths in cells grown in the presence of the different analogs were monitored by Southern blot analysis of DNA samples extracted at a series of time points during the subculturings. The telomeres of cells grown vegetatively in 1 and 5 mM AZT in 2% PPYS medium were reproducibly shortened by up to an average of 170 base pairs compared with the control cultures grown in 2% PPYS in the absence of the drug (FIG. 21A and B). This shortening of telomeres occured in a concentration-dependent manner (FIG. 21B), with at least 50% of the maximal shortening effect occurring by 10 μM AZT, the lowest concentration tested.

The test system of data set [2] is Tetrahymena cells. The experiment in a line: Progeny formation (cycloheximide resistance) of Tetrahymena conjugated in the presence of analog. The class given is cell-based, Tetrahymena thermophila. The note with it: for % CHX-R / # CHX-R: first block for the analog; for # CHX-R: number of cycloheximide-resistant wells. On the procedure: For analysis of cycloheximide (CHX) sensitivity of cells conjugated in the presence of analog, 50 ml cultures of each cell type were grown overnight in 2% PPYS, starved in Dryl's for 18 hours, mated (5×10^5 cells/ml) for 6 hours, then analog was added. Cells were allowed to complete mating in the presence of the analog. Twenty-four hours after mixing, cells were diluted in Dryl's solution, counted and plated at 1 cell per well of 96-well plates in 1% PPYS without analog. Cells were grown for 4 days in a humid chamber at 30° C., without shaking. Cells were then replica plated into 1% PPYS plus 15 μg/ml cycloheximide, allowed to grow for four days before scoring, and percent of CHX-resistant wells was calculated. Because generation of progeny expressing the cycloheximide marker requires successful production of a new macronucleus, cells whose macronuclear development was disrupted by the analog are killed in CHX.
This process involves de novo formation of new macronuclear telomeres in the progeny cells. Macronuclear development in ciliated protozoans such as Tetrahymena involves developmentally programmed, site-specific fragmentation of germline chromosomes into linear subchromosomes, whose ends are healed by de novo addition of telomeres. […] Because of the immediate requirement for telomere addition to fragmented DNA, it is possible that the latter process might be more sensitive to telomerase inhibition than telomere maintenance during vegetative growth. To test whether nucleoside analogs cause inhibition of macronuclear development due to a disruption of telomere formation, we mated two strains of Tetrahymena which are sensitive to cycloheximide, but whose progeny after mating are resistant to cycloheximide. Synchronized mated cells were treated with AZT at concentrations ranging from 10 μM to 5 mM for a period beginning just prior to when macronuclear development begins and continuing during macronuclear development (the period 6-24 hours after mating was initiated). […] In attempts to maximize the effect of AZT, cells were either refed at 6 hrs with 2% PPYS or Isobroth, or starved until 24 hrs (the duration of the AZT treatment). Such starvation arrests macronuclear development at an intermediate stage. When refed, macronuclear development would then be forced to proceed in the presence of the AZT. Control, unmated parental cells were also plated and exposed to drug.

In data set [3] the test system is MDA 157 human breast cancer cells. The experiment in a line: Proliferation of MDA 157 cancer cells fed oligonucleotides (Example 2). The class given is cell-based. On the procedure: Specifically, MDA 157 human breast cancer cells with an immortal phenotype were seeded at 10,000 cells per well in 12 well tissue culture dishes and fed medium only or medium supplemented with GTO-12 (at 1.0 μM, 0.1 μM, and 0.01 μM). […] Cells fed the GTO-12 oligonucleotide, at 1.0 μM, however, ceased to proliferate after less than 10 doubling. […] The lack of effect of the G+C mixture may reflect the CTO-12 oligonucleotide, competing with or base pairing with the GTO-12 oligonucleotide, this preventing its inhibitory effect on the cancer cell telomerase.

In data set [4] the test system is IDH4 immortalized human fibroblast cell line. Description: IDH4 cells incubated with GTO: population doublings and TRF length (Example 12). The note with it: for population doublings in 90 days: fed every other day (control 45 PDL). The class given is cell-based. On the procedure: As in Example 2, an immortalized human fibroblast cell line, IDH4, which has very short TRFs, was incubated with GTO oligonucleotide. Referring to FIGS. 15 and 16, cells were incubated in regular culture medium containing serum in the presence of 10 μM, 30 μM and 100 μM GTO. The cells were fed fresh phosphodiester GTO oligonucleotide every other day and subcultured when confluent for a total of 90 days. The cells were still growing in GTO after 90 days at all concentrations used even though they grew more slowly at the higher GTO concentrations and went through fewer population doubling (control, 45 PDL; 10 μM GTO 40 PDL; 30 μM 35 PDL; 100 μM 25 PDL). […] The control and 30 μM GTO were passaged without oligonucleotide addition for an additional 90 days (approximately 35-40 PDL). As is illustrated in FIG. 16, the TRFs slowly shorten.

As to `O=c1[nH]cnc2c1ncn2[C@H]1CC[C@@H](CO)O1` [ddI], in the data set on Tetrahymena cells [1], the “telomere length compared with control cultures” value is reported as “no changes in telomere length”. In addition, the “% CHX-R” value in the data set with Tetrahymena cells [2] (0.001 mM analog (head prints MM)) was 83%; with Tetrahymena cells [2] (0.01 mM analog (head prints MM)), 89%; in the data set with Tetrahymena cells [2] (0.1 mM analog (head prints MM)), 78%; with Tetrahymena cells [2] (1.0 mM analog (head prints MM)), 91%. For the same compound, the “# CHX-R” value with Tetrahymena cells [2] (0.001 mM analog) came to 59; with Tetrahymena cells [2] (0.01 mM analog), 85; in the data set with Tetrahymena cells [2] (0.1 mM analog), 83; with Tetrahymena cells [2] (1.0 mM analog) it was 100. Also, the “irreversible disruption of macronuclear development” value with Tetrahymena cells [2] (analog present during conjugation) is “little or no irreversible disruption”.
For the compound “5′-TTAGGGTTAGGG-3′ (listed as DNA, chemistry not given here) [GTO-12, guanidine-rich terminal oligonucleotide-12 bp]”, the “doublings after which cells ceased to proliferate” value in data set [3] (1.0 μM) is “less than 10 doubling”. Further, the proliferation phenotype result in data set [3] (doses of less than 1.0 μM (0.1 μM, 0.01 μM)) was “continued replicating in an immortal phenotype”. In data set [4] (10 μM, 30 μM and 100 μM), the “TRF length after 90 days” value is “regained TRF length in a dose dependent manner”. The figures for the “population doublings in 90 days” value in data set [4] (10 μM), in data set [4] (30 μM) and in data set [4] (100 μM) were 40 PDL, 35 PDL and 25 PDL, respectively.
